Results: patent publication US12139461B1, “Piperidine compounds as PDE5 inhibitors” (KING SAUD UNIVERSITY, priority 2024, dated 2024)
Several values for one entry are separate records, joined by “and”; a condition that tells them apart may be missing. Equal values may be shown once.

Columns and labels:
[1] = target: Phosphodiesterase type 5 (PDE5) (Homo sapiens (Human), UniProt O76074); assay: In vitro phosphodiesterase type 5 (PDE5) inhibition assay; assay type: biochemical; settings: purified PDE5, IMAP FP assay
male diabetic rats = assay: Copulatory behavior testing in diabetic animals; assay type: in vivo, rat; settings: 5 mg/kg/day for 14 days; for ejaculation latency (EL) / intromission frequency (IF) / intromission latency (IL) / mount frequency (MF) / mount latency (ML) / post-ejaculatory interval (PEI) / copulatory efficiency (CE) / mean intromission interval (MII): male diabetic rats; for copulatory efficiency (CE): CE=(IF/MF)x100; for mean intromission interval (MII): MII=EL/IF; for sexual function in diabetic rats: versus diabetic control rats
Protocol: Nearly 90% of the population suffering from diabetic conditions report disturbances in sexual function, encompassing a decrease in libido, impotence and infertility (Kamenov Z A, Exp Clin Endocrinol Diabetes 123 (2015) 141-158). Diabetic was induced in experimental animals by intraperitoneal administration of streptozotocin in separate groups of male animals. Diabetes was induced by a single intraperitoneal injection of freshly prepared 65 mg/kg streptozotocin in […] citrate buffer, pH 4.4 (Mendez J D and Ramos H G, Arch Med Res 25 (1994) 367-375). All rats receiving streptozotocin were given a 10% sucrose solution in the first 48 h after injection to prevent hypoglycemia. After 72 h of streptozotocin administration, rats with fasting serum glucose more than 350 mg/dL were considered as diabetic. Glibenclamide was given by oral gavage once a day (10 mg/kg/day) to diabetic animals to avoid mortality throughout the investigation (Abdel-Aziz A A-M. et al., Eur J Med Chem 46 (2011) 4324-4329). The male rats were trained for sexual behavior study before induction of diabetes and treatment, as mentioned above. Diabetic rats were given a daily oral dose of 5 mg/kg of compounds C9, C14 and C21 for 14 consecutive days. The sexual behavior of the animals was assessed on day 15 of the treatment. The copulatory behavior testing was performed, and CE and MII were calculated.

rats = assay: Evaluation of LD50 (acute oral toxicity); assay type: in vivo; settings: single oral dose 500-2000 mg/kg
From the text: (§1) Healthy rats were divided into groups of 10 rats and maintained as described above. Rats had free access to water and food, except for a short fasting period before the treatment with the single oral dose of compounds C9, C14 and C21 or the solvent. The compounds were formulated with 1% CMC. An approximate LD50 was initially determined in a pilot study by a so called ‘staircase method’ using a small number of animals (2 each dose) and increasing doses of tested compounds. Three doses were then chosen for the determination of oral median lethal dose (LDso) (500, 1000 and 2000 mg/kg) and given to three groups of rats (10 in each group). Another group of rats (6 rats) was given equal amounts of 1% CMC orally and served as a control group. […] After 24 hours, the number of dead rats was counted in each group. The percentage of animals that had died at each dose level was transformed to probits, and then LD50 was determined by the method of Miller and Tainter, 1944 as described previously (Randhawa M A, J Ayub Med Coll Abbottabad 21 (2009) 184-185, the contents of which are hereby incorporated by reference in their entirety).

[2] = Evaluation of LD50 (acute oral toxicity); assay type: in vivo; settings: rat, in vivo, po; single intragastric administration, rats, 24 h
From the text: as §1

male rats = assay: Copulatory behavior testing; assay type: in vivo, rat; settings: 5 mg/kg oral; for copulatory efficiency (CE): CE=(IF/MF)x100; for mean intromission interval (MII): MII=EL/IF
Protocol: Sexually mature Wistar albino male and female rats weighing 150-180 g (10-14 weeks old) were used in our study. Males were trained for sexual behavior with estrus females, that is, two hours a day for one week, before the investigations. Females were brought into the estrous phase artificially by sequential injection of estradiol benzoate (Sigma) (25 μg/animal) and progesterone (Sigma) (250 μg/animal) subcutaneously, 48 and 4 hours before pairing, respectively. Only those sexually active animals were used subsequently in the study. Sexually active rats were isolated and housed in separate cages at room temperature (24±2° C.) on a reversed day/night cycle with a relative humidity of 50-55% during the experimental period. All sexual studies were performed in a calm laboratory condition under subdued light. For the toxicity study, adult Wistar albino male rats were used separately. Rats were obtained from the Experimental Animal Care Center, College of Pharmacy, King Saud University. Animals were fed with a standard pellet diet and provided water ad libitum. All experiments were performed per the protocols and recommendations of the NIH Guide for the Care and Use of Laboratory Animals and the legal requirements of King Saud University for investigations on humans and animals.
Based on a preliminary study to select the appropriate dose for the promising synthesized compounds, the compounds were administered separately to sexually experienced male rats by oral gavage at 5 mg/kg in a 0.5% sodium carboxymethyl cellulose (CMC) vehicle. […] All solutions were freshly prepared at a concentration that allowed the administration of 1 ml/kg.
After drug treatment, rats were housed separately in transparent cages for acclimation. Thirty minutes after drug treatment, a sexually receptive female rat with estrous phase was introduced in each cage for 30 min and the following parameters of the copulatory behavior were recorded: namely mount latency (ML; time from introduction of the female until the first mount with or without penile insertion, it measures the degree of arousal or sexual interest or libido of the male), mount frequency (MF; the number of mounts until ejaculation, it is a measure of the degree of the male's sexual interest or libido), intromission latency (IL; time from introduction of the female until the first intromission, it measures the degree of sexual excitement and erection), intromission frequency (IF; number of vaginal penetrations until ejaculation, it measures the degree of erection), ejaculation latency (EL; time from the first intromission until ejaculation, it determines the excellent organization of copulation in rats) and post-ejaculatory interval (PEI; time interval between an ejaculation and the following first mount, it measures the refractory period that comes after ejaculation). Latency values represent the number of seconds that elapses from the introduction of the female into the copulatory arena until the male executes the first mount, intromission or ejaculation. Frequency values represent the number of ejaculations, mounts or intromission recorded during the copulatory test.
Depending on these parameters, the following can be calculated: Copulatory efficiency (CE)=(IF/MF)×100 and mean intromission interval (MII)=EL/IF as previously described (Aydogan F. et al., J Ethnopharmacol 257 (2020) 112868; Besong E B. et al., Biochem Res Int 2018 (2018) 2869727, the contents of each of which are hereby incorporated by reference in their entirety). Experiments were repeated blindly three times using new fresh (unused) animals in each experiment.

[3] = tested on: sexually experienced male rats; assay: Penile erection index (noncontact erection test); assay type: in vivo, rat; settings: for erectile response: oral treatment; for ED50: Rattus norvegicus, linear regression of proportion of responding rats, read-out: effective dose ED50 (dose required to give 50% responding rats)
Protocol: The penile erection index is an established means of determining the erection promoting properties of a substance. Determination of penile erection in a noncontact position was calculated as reported previously (Haripriya V M. et al., Andrologia 51 (2019) e13180; Sharma V. et al., J Ethnopharmacol 143 (2012) 201-206, the contents of each of which are hereby incorporated by reference in their entirety). The sexually experienced male rats of all groups were given the treatment 30 minutes before experimentation. The number of animals for each dose was ten rats in each experiment. […] The results shown are the average of three separate experiments. Control animals were given 0.5% CMC as a vehicle.
The rats of each group were placed in the observation cages (five at a time) divided into half by two sheets of metal mesh, preventing contact but allowing auditory, visual and olfactory stimuli. After a 5-min adaptation period, the test was started by placing an estrus female on the other side of the cage. Penile erection was recorded when the rats bent down to lick their erect penis. Homosexual mounting was also counted when a male rat mounted another male rat performing pelvic thrusts with or without a penile erection. […] The effective dose ED50 (the dose required to give 50% responding rats) for examined compounds was calculated using linear regression analysis by GraphPad software with the proportion of responding rats as the input data and expressed as μmol/kg.

Compound | IC50 [1] | ejaculation latency (EL) (male diabetic rats) [s] | intromission frequency (IF) (male diabetic rats) | intromission latency (IL) (male diabetic rats) [s] | mount frequency (MF) (male diabetic rats) | mount latency (ML) (male diabetic rats) [s] | post-ejaculatory interval (PEI) (male diabetic rats) [s] | copulatory efficiency (CE) (male diabetic rats) [%] | mean intromission interval (MII) (male diabetic rats) | sexual function in diabetic rats (male diabetic rats) | toxic symptoms after oral dosing (rats) | efficacy in improving copulatory behavior (male rats) | ejaculation latency (EL) (male rats) [s] | intromission frequency (IF) (male rats) | intromission latency (IL) (male rats) [s] | mount frequency (MF) (male rats) | mount latency (ML) (male rats) [s] | post-ejaculatory interval (PEI) (male rats) [s] | copulatory efficiency (CE) (male rats) [%] | mean intromission interval (MII) (male rats) | also measured
O=S(=O)(c1ccc(Cl)cc1Cl)N1CCC(c2ccccc2)CC1 [Compound C9, 1-((2,4-Dichlorophenyl)sulfonyl)-4-phenylpiperidine] | 0.0479 µM | 223.3 | 4.3 | 305.1 | 10.6 | 137.1 | 552.8 | 40.9 | 53.1 | restored | gradually became drowsy and less responsive | more pronounced | 368.3 | 12.8 | 177.6 | 23.6 | 74.6 | 355.6 | 55.2 | 29.0 | LD50 at 24 h [2]: > 2000 mg/kg; erectile response ([3]; 1.25-5 mg/kg): statistically elevated; penile erection index (PEI) ([3]; oral, dose 1.25 mg/kg): 23.3 ± 3.3; penile erection index (PEI) ([3]; oral, dose 2.5 mg/kg): 53.3 ± 8.8; penile erection index (PEI) ([3]; oral, dose 5 mg/kg): 60.0 ± 5.7
O=S(=O)(c1ccc(Cl)c(Cl)c1)N1CCC(c2ccccc2)CC1 [Compound C11, 1-((3,4-Dichlorophenyl)sulfonyl)-4-phenylpiperidine] | 0.0567 µM and 0.0568 µM | – | – | – | – | – | – | – | – | – | – | more pronounced | 318.1 | 8.3 | 205.5 | 17.1 | 94.6 | 393.5 | 48.5 | 39.6 | melting point: 217 to 219 °C; ED50 ([3]; oral): 12.7 µmol/kg
NS(=O)(=O)c1ccc(CNC(=O)CN2CCC(Cc3ccccc3)CC2)cc1 [Compound C14, 2-(4-Benzylpiperidin-1-yl)-N-(4-sulfamoylbenzyl)acetamide] | 0.0394 µM | 208.3 | 3.8 | 327.6 | 10.6 | 158.0 | 505.6 | 35.6 | 55.7 | restored | gradually became drowsy and less responsive | more pronounced | 425.1 | 20.6 | 122.6 | 27.3 | 54.6 | 277.1 | 76.2 | 20.8 | LD50 at 24 h [2]: > 2000 mg/kg; ED50 ([3]; oral): 10.1 µmol/kg; erectile response ([3]; 1.25-5 mg/kg): statistically elevated; animal response (proportion of responding rats) with dose ([3]; oral, 1.25-5 mg/kg): higher response; penile erection index (PEI) ([3]; oral, dose 1.25 mg/kg): 26.6 ± 3.4; penile erection index (PEI) ([3]; oral, dose 2.5 mg/kg): 46.6 ± 3.3; penile erection index (PEI) ([3]; oral, dose 5 mg/kg): 90.0 ± 11.5
O=S(=O)(c1ccc(Cl)cc1Cl)N1CCC(Cc2ccccc2)CC1 [Compound C21, 4-Benzyl-1-((2,4-dichlorophenyl)sulfonyl)piperidine] | 0.0412 µM | 248.5 | 4.3 | 326.0 | 10.6 | 154.6 | 510.5 | 41.1 | 59.1 | restored | gradually became drowsy and less responsive | more pronounced | 395.0 | 16.8 | 178.6 | 26.6 | 72.5 | 298.0 | 63.6 | 23.74 | LD50 at 24 h [2]: > 2000 mg/kg; ED50 ([3]; oral): 14.3 µmol/kg; erectile response ([3]; 1.25-5 mg/kg): statistically elevated; penile erection index (PEI) ([3]; oral, dose 1.25 mg/kg): 26.5 ± 6.6; penile erection index (PEI) ([3]; oral, dose 2.5 mg/kg): 46.6 ± 3.3; penile erection index (PEI) ([3]; oral, dose 5 mg/kg): 63.3 ± 3.4
COc1ccc(CNC(=O)CN2CCC(Cc3ccccc3)CC2)cc1 [Compound C33, 2-(4-Benzylpiperidin-1-yl)-N-(4-methoxybenzyl)acetamide] | 0.0998 ± 0.00194 µM | – | – | – | – | – | – | – | – | – | – | – | – | – | – | – | – | – | – | – | melting point: 89 to 91 °C
